Data from ChEMBL document CHEMBL4825766, “Structure Activity Relationships for a Series of Eticlopride-Based Dopamine D2/D3 Receptor Bitopic Ligands” (J Med Chem, 2021).

Assays:
[1] = target: D(2) dopamine receptor (Homo sapiens, UniProt P14416)
[2] = target: D(3) dopamine receptor (Homo sapiens, UniProt P35462)
Sequence of D(3) dopamine receptor (P35462 whole entry): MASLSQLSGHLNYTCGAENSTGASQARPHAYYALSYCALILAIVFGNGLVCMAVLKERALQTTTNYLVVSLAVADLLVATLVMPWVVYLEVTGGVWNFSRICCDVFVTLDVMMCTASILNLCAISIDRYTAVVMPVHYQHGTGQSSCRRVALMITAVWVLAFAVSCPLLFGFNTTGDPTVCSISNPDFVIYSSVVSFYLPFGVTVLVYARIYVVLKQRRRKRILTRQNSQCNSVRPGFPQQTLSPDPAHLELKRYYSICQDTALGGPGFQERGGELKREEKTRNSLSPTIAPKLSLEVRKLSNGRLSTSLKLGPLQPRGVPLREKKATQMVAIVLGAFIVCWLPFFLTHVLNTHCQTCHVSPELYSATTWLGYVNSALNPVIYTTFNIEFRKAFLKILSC

Sequence of D(2) dopamine receptor (P14416 whole entry): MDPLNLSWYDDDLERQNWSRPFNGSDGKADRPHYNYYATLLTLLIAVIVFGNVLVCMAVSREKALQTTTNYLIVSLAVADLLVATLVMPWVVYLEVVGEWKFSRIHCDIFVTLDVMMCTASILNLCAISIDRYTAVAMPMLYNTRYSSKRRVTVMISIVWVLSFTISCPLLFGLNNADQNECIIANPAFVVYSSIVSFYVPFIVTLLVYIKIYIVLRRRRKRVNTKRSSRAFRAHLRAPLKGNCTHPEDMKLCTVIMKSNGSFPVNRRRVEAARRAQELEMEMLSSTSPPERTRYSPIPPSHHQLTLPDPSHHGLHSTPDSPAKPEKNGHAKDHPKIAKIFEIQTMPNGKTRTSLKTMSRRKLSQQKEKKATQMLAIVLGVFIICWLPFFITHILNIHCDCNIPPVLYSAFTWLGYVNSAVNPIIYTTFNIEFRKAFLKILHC

Row | Ki [1] | Ki [2] | Structure (SMILES)
1 | 1.9 nM | 0.815 nM | CCc1cc(Cl)c(OC)c(C(=O)NC[C@@H]2C[C@@H](OCCCCO)CN2)c1O
2 | 25.3 nM | 6.97 nM | CCc1cc(Cl)c(OC)c(C(=O)NC[C@@H]2CCCN2CCCCOc2ccc3c(c2)NC(=O)CC3)c1O
3 | 2.29 nM | 0.493 nM | CCc1cc(Cl)c(OC)c(C(=O)NC[C@@H]2C[C@@H](OCCCCNC(=O)c3cc4ccccc4o3)CN2)c1O
4 | 27.6 nM | 15.4 nM | CCc1cc(Cl)c(OC)c(C(=O)NC[C@@H]2CCCN2CCCCNC(=O)c2cc3ccccc3o2)c1O
5 | 7.24 nM | 1.01 nM | CCc1cc(Cl)c(OC)c(C(=O)NC[C@@H]2C[C@@H](OCCCCOCc3ccccc3)CN2)c1O
6 | 205 nM | 28.7 nM | CCc1cc(Cl)c(OC)c(C(=O)NC[C@@H]2CCCN2Cc2ccccc2)c1O
7 | 66.4 nM | 14.3 nM | CCCN1CCC(CNC(=O)c2c(O)c(CC)cc(Cl)c2OC)C1 (centres undefined)
8 | 2.54 nM | 0.797 nM | CCc1cc(Cl)c(OC)c(C(=O)NC[C@@H]2C[C@@H](OCCCCNC(=O)c3cc4ccccc4[nH]3)CN2)c1O
9 | 2.26 nM | 0.431 nM | CCc1cc(Cl)c(OC)c(C(=O)NC[C@@H]2CCCN2)c1O
10 | 2.57 nM | 0.444 nM | CCCN1C[C@H](OCCCCOc2ccc3c(c2)NC(=O)CC3)C[C@H]1CNC(=O)c1c(O)c(CC)cc(Cl)c1OC
11 | 162 nM | 20.4 nM | CCc1cc(Cl)c(OC)c(C(=O)NC[C@@H]2CCCN2CCCc2ccccc2)c1O
12 | 0.688 nM | 0.281 nM | CCCN1CCC[C@H]1CNC(=O)c1c(O)c(CC)cc(Cl)c1OC
13 | 2590 nM | 426 nM | CCc1cc(Cl)c(OC)c(C(=O)NC[C@@H]2CCCN2Cc2ccccc2)c1OCc1ccccc1
14 | 7.42 nM | 2.63 nM | CCc1cc(Cl)c(OC)c(C(=O)NC[C@@H]2C[C@@H](OCCCc3ccccc3)CN2)c1O
15 | 38.2 nM | 19.2 nM | CCc1cc(Cl)c(OC)c(C(=O)NCC2CCN(CC)C2)c1O (centres undefined)
16 | 173 nM | 61.1 nM | CCc1cc(Cl)c(OC)c(C(=O)NC[C@@H]2CCCN2CCCCNC(=O)c2cc3ccccc3[nH]2)c1O
17 | 1.77 nM | 0.436 nM | CCc1cc(Cl)c(OC)c(C(=O)NC[C@@H]2C[C@@H](OCCCCOc3ccc4c(c3)NC(=O)CC4)CN2)c1O
18 | 217 nM | 100 nM | CCc1cc(Cl)c(OC)c(C(=O)NCC2CCN(C)C2)c1O (centres undefined)
19 | 74.4 nM | 50.3 nM | CCc1cc(Cl)c(OC)c(C(=O)NC[C@@H]2CCCN2CCc2c(C)nc3n(c2=O)CCCC3)c1O
20 | 0.117 nM |  | CCc1cc(Cl)c(OC)c(C(=O)NC[C@@H]2CCCN2CC)c1O [ETICLOPRIDE]
